Measurements: article PMC11743672, “Characterization of the ligand-binding properties of odorant-binding protein 38 from Riptortus pedestris when interacting with soybean volatiles” (Frontiers in Physiology, 2025)
Like-named read-outs stand apart in the source and are kept apart here.

Molecular target: RpedOBP38 (Riptortus pedestris, UniProt A0A2Z4HQ26)
Assay: Fluorescence competitive binding assay (1-NPN displacement)
Conditions: for IC50: 2 μM recombinant RpedOBP38 and 1-NPN, PBS pH 7.4, three replicates
Description: Recombinant RpedOBP38 binding to putative chemical ligands was characterized with a microplate reader (BioTek Synergy H1, United States). Fluorescence intensity values at the excitation wavelength of 337 nm and a maximum fluorescence emission wavelength of 450 nm were plotted against the free concentration of ligand for the measurement of dissociation constants, selecting candidate ligands from among 36 volatile compounds that included 11 green leaf volatiles ([Chen et al., 2018]; [Guo and Wang, 2019]; [Cheng et al., 2020]; [Hong et al., 2022]; [Tang et al., 2023]; [Zhu et al., 2023]), 11 soybean volatiles ([Wang et al., 2019a]; [Zhu et al., 2022]), 10 repellent activity volatiles ([Zhang et al., 2013]; [Zhang et al., 2014]), and 4 aggregation pheromone compounds ([Leal et al., 1995]; [Yasuda et al., 2007]). HPLC-grade methanol was used for the dissolution of the probe N-phenyl-1-naphthylamine (1-NPN) and all ligands. The ability of RpedOBP38 to bind 1-NPN was assessed by using 10 mM PBS (pH 7.4) to prepare a 2 μM purified protein solution, titrating with 1 mM 1-NPN in methanol to prepare final concentrations from 2–20 μM. RpedOBP38 binding to each ligand was evaluated in a solution consisting of 2 μM purified protein and 1-NPN, followed by titration through the addition of ligands until no further decrease in the fluorescence intensity was observed. Ligands were independently replicated three times, and dissociation constants for each ligand were measured as follows: Ki = [IC50]/(1 + [1-NPN]/K1-NPN), where IC50 denotes the ligand concentration when the fluorescence intensity is half of the initial value [1-NPN] is the free 1-NPN concentration, and K1-NPN is the dissociation constant for the RpedOBP38/1-NPN complex ([Campanacci et al., 2001]).

[1] = Ki = [IC50]/(1 + [1-NPN]/K1-NPN), 2 μM protein and 1-NPN, Ki > 40 considered weak binding
[2] = values as quoted in running text

Sequence of RpedOBP38 (A0A2Z4HQ26 entry or part of it): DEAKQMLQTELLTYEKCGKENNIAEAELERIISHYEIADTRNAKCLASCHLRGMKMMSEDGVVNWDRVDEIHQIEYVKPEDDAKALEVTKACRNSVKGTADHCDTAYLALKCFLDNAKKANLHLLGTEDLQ

| SMILES | IC50 | Ki [1] | Ki | Ki [2] |
| --- | --- | --- | --- | --- |
| C=C(C)[C@H]1CC=C(C)C(=O)C1 [(+)-carvone] | > 40 µM | > 40 µM | – | – |
| CC1=CC[C@@](O)(C(C)C)CC1 [(−) -4-terpineol] | > 40 µM | > 40 µM | – | – |
| CC1=CCC2CC1C2(C)C (stereo not drawn) [(−)-α-pinene] | > 40 µM | > 40 µM | – | – |
| CCCCCCCCCCCCCCOC(=O)C(C)C [myristyl isobutyrate] | > 40 µM | > 40 µM | – | – |
| CC1=CC[C@](O)(C(C)C)CC1 [(+) -4-terpineol] | 18.7 ± 0.428 µM | – | 14 ± 0.321 µM | 14 µM |
| C=C(C)C1CC=C(C)C(=O)C1 (single isomer, unassigned; (-)) [(−)-carvone] | 36.2 ± 5.17 µM | – | 27.2 ± 3.88 µM | 27.2 µM |
